In patent US4708962A, “Antiviral and antitumor cyclohexadienone compositions” (Harbor Branch Oceanographic Institution, Inc., priority 1985, dated 1987):
≈ marks a conversion by molar mass, not a printed value. Like-named read-outs stand apart in the source and are kept apart here.

Tests used:
[1] = tested on: P-388 murine leukemia cells; experiment: Cytotoxicity assay, P388 mouse leukemia cells; assay type: cell-based
Procedure: (§1) The following assay method was utilized to illustrate the antitumor effectiveness of compounds 1-7.
(§2) L1210 And P388 MOUSE LEUKEMIA CELL; ILEOCECAL ADENO CARCINOMA HCT-8; AND LUNG CARCINOMA A549; CYTOXICITY ASSAY 24-WELL PLATE SCREENING ASSAY AND TUBE ASSAY PROTOCOL
(§3) Media--Dulbeccos with glucose and pyruvate (Biologos, Inc) with 10% horse serum, (Biologos, Inc) and 1.0 ug/ml gentamicin (Gibco).
(§4) Cells--L1210 and P-388 mouse leukemia cells (American Type Culture Collection) in media at a concentration of 5×10^4 cells/ml. Sterile 24-well culture plates (Nunc) for screening or 12×75 mm glass culture tubes (Becton-Dickinson) for tube assay. Microdispenser with 1 to 5 ul increments (Drummond Scientific Co. Broomall PA).
(§5) Finnpipette with 5 to 50 ul increments and Finnpipette with 50 to 200 ul increments.
(§6) 1. A sample of the composition to be assayed is added to each well or tube in an amount of from 200 ug/ml and 100 ug/ml for screening. For DDC of known active compounds use log concentrations from 100 ug/ml to 0.01 ug/ml for range-finding assay; when range has been determined, use five concentrations between highest and lowest active concentrations.
(§7) 2. Add 2.0 ml of 5×10^4 cell suspension in media to each well or tube. Tubes are loosely covered with parafilm.
(§8) 3. Incubate in 5% CO2 incubator 48 hours.
(§9) 4. Visually read plates with inverted microscope, comparing with solvent control. Assign activity as follows:
(§10) 1+=75-89% of control growth
(§11) 2+=50-74% of control growth
(§12) 3+=25-49% of control growth
(§13) 4+=<25% of control growth
(§14) Repeat all positive samples using tube assay.
(§15) 5. For Tube assays--Mix tube well on vortex and remove 0.5 ml aliquot and add to 9.5 ml nf diluent fluid (Isoton-Coulter) in Accuvette (Coulter) and mix well by inversion immediately before counting, taking care not to produce excessive bubbles. Count on Coulter Counter (Counter is set to count 0.5 ml of the solution, therefore counts may be converted to cell/ml in original assay tube by multiplying count by 40.
(§16) Positive control--Vinblastine or Vincristine in aqueous solution.

[2] = tested on: ileocecal adenocarcinoma HCT-8; experiment: Cytotoxicity assay, ileocecal adenocarcinoma HCT-8; assay type: cell-based; settings: Homo sapiens, 48 h, summary table, read-out: Test Cells at (ID 50), HCT-8
Procedure: as §1, §2, §3, §5, §6, §7, §8, §9, §10, §11, §12, §13, §14, §15, §16

lung carcinoma A549 = experiment: Cytotoxicity assay, lung carcinoma A549; assay type: cell-based; settings: Homo sapiens, 48 h, summary table, read-out: Test Cells at (ID 50), A549
Procedure: as §1, §2, §3, §5, §6, §7, §8, §9, §10, §11, §12, §13, §14, §15, §16

cells = experiment: Zone of cytotoxicity in the antiviral disk assay; assay type: cell-based; settings: read at Day 5, disk assay
Procedure: The following assay method was utilized to illustrate the antiviral effectiveness of compound (1).
(8) Once detached, shake vigorously and immediately add 8 ml medium and shake again.
(9) Count cells. (To 0.5 ml cell suspension add 0.1 ml trypan blue. Wait 5-10 minutes. Count 4 corner squares and middle square of 5×5 array in hemocytometer. Blue cells are dead. Total count per 10 ml in culture
(11) For assay, add 1×10^6 cells to each well (6 wells per culture dish). Bring each well to 2 ml with fresh medium.
(5) Place disks on surface and push through (1 mg/disc, 0.5 mg/disc, 0.25 mg/disc, etc. for crude extracts).
(6) Incubate 48 hr. (making sure dishes remain level).
(1) Add 2 ml neutral red medium.

HSV-I = experiment: Antiviral assay: inhibition of HSV-I plaque formation (disks pushed into methyl cellulose overlay); assay type: cell-based, herpes simplex-I; settings: for 25 to 80 plaque forming units of virus cells
Procedure: The following assay method was utilized to illustrate the antiviral effectiveness of compound (1). (1) Remove 75 cm^2 culture flasks from incubator (these were plated the previous week). (2) Aspirate medium. (3) Wash with 10 ml PBSA or Puck's Saline. (4) Aspirate. (5) Wash a second time with 10 ml PBSA or Puck's Saline. (6) Aspirate. (7) Add 2 ml trypsin/EDTA. Incubate until cells detach (10-20 min). (8) Once detached, shake vigorously and immediately add 8 ml medium and shake again. (9) Count cells. (To 0.5 ml cell suspension add 0.1 ml trypan blue. Wait 5-10 minutes. Count 4 corner squares and middle square of 5×5 array in hemocytometer. Blue cells are dead. Total count per 10 ml in culture flask=# live cells×6×10^5). (10) Maintain cell line by adding 3×10^6 cells to another 75 cm^2 culture flask. Bring to 30 ml with fresh medium. (11) For assay, add 1×10^6 cells to each well (6 wells per culture dish). Bring each well to 2 ml with fresh medium. (12) Incubate overnight at 37° C. (1) Aspirate medium. […] (3) Incubate […] with a small amount of shaking. (4) Add 2 ml MC-4000 to each well. (5) Place disks on surface and push through (1 mg/disc, 0.5 mg/disc, 0.25 mg/disc, etc. for crude extracts). (6) Incubate 48 hr. (making sure dishes remain level). (1) Add 2 ml neutral red medium. (2) Incubate overnight. […]

[3] = tested on: L-1210 murine leukemia cells; experiment: Cytotoxicity assay, L1210 mouse leukemia cells; assay type: cell-based; settings: for viability at 200 µg/mL: in vitro, at 200 micrograms per milliliter, read-out: survival, L-1210
Procedure: as §1, §2, §3, §4, §5, §6, §7, §8, §9, §10, §11, §12, §13, §14, §15, §16

[4] = Stability at room temperature; assay type: physicochemical
[5] = P-388, summary table, read-out: Test Cells at (ID 50), P-388
[6] = in vitro, P-388 murine leukemia cells, read-out: estimated ID50 (dose which kills 50% of the cells), P-388

Row | Compound | IC50 [1, 5] [µg/mL] | IC50 [2] [µg/mL] | IC50 (lung carcinoma A549) [µg/mL] | zone of cytotoxicity as the diameter (cells) [mm] | minimal effective amounts (antiviral activity) (HSV-I) [micrograms] | IC50 [1, 6] [µg/mL] | viability at 200 µg/mL [3] [%] | IC50 ([3]; L-1210 murine leukemia cells, read-out: estimated ID50, L-1210) [µg/mL] | decomposition [4]
1 | CC1(C)C=CC(=O)C(C(Cl)CBr)=C1 (stereo not drawn) [Composition 6] | 0.5 (≈ 1.9 µM) | 5 (≈ 19 µM) | 5 (≈ 19 µM) | – | – | – | – | – | –
2 | CC(=O)OCC(Cl)C1=CC(C)(C)C=CC1=O (stereo not drawn) [Compound 1] | 5 (≈ 20.6 µM) | 10 (≈ 41.2 µM) | 20 (≈ 82.4 µM) | 16 | 50 to 100 | 37 (≈ 152 µM) | – | – | –
3 | C=C(OC)C1=CC(C)(C)C=CC1=O [Compound 2] | 5 (≈ 28.1 µM) | 20 (≈ 112 µM) | 30 (≈ 168 µM) | – | – | – | 15 | – | –
4 | COC(C)(OC)C1=CC(C)(C)C=CC1=O [Compound 3] | 10 (≈ 47.6 µM) | 30 (≈ 143 µM) | 30 (≈ 143 µM) | – | – | 70 (≈ 333 µM) | 17 | – | –
5 | CC(=O)C1=CC(C)(C)C=CC1=O [Compound 4] | 5 (≈ 30.4 µM) | 5 (≈ 30.4 µM) | 5 (≈ 30.4 µM) | – | – | 70 (≈ 426 µM) | 41 | – | –
6 | CC1(C)C=CC(=O)C(C2CO2)=C1 (stereo not drawn) [Compound 5] | 10 (≈ 60.9 µM) | 5 (≈ 30.4 µM) | 1 (≈ 6.09 µM) | – | – | 5 (≈ 30.4 µM) | 25 | 0.7 (≈ 4.26 µM) | –
7 | CC1(C)C=CC(=O)C(C(Cl)CO)=C1 (stereo not drawn) [Formula VIII] | – | – | – | – | – | – | – | – | decompose at room temperature in two hours
